Results: patent publication US12410160B2 (Gilead Sciences, Inc., priority 2021, dated 2025)
Where two headings read alike, the source gives them in different places.

Experiments:
[1] = target: KHK-C expressed in NRK-52E cells (Homo sapiens (Human), UniProt P50053); test: KHK-C Cell-based Assay (EC50), NRK CTG, fructose-mediated ATP-depletion
human KHK-C = human KHK-C (Homo sapiens (Human), UniProt P50053); test: KHK Biochemical Assay (IC50), ADP-Glo, KHK-C; details: average of at least two separate assays
Chain of human KHK-C (P50053 whole entry): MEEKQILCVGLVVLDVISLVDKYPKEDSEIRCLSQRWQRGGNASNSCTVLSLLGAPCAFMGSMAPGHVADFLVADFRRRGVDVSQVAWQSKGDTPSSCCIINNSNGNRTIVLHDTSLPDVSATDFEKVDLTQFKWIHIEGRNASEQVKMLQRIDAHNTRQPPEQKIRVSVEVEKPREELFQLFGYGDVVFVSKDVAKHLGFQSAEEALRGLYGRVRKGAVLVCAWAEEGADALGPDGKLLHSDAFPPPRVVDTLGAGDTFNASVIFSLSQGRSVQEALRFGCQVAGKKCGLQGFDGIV
Outline: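 His-tagged enzyme expressed in BL21 (DE3), Ni-NTA purified. Compounds, serially diluted 1:3 in DMSO, pre-incubated 30 min with enzyme in 50 mM Hepes pH 7.4, 140 mM KCl, 5 mM MgCl2, 0.01% Triton-X, then ATP and fructose added; 4 h at room temperature. ADP formation read by ADP-Glo luminescence.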

[2] = read-out: NRK CTG EC50, NRK-52E cells, Cell-Titer Glo, 25 mM fructose

Chain of KHK-C expressed in NRK-52E cells (P50053 whole entry): as above

| Structure (SMILES) | EC50 [1, 2] [nM] | IC50 (human KHK-C) [nM] | EC50 [1] [nM] | IC50 (human KHK-C; ADP-Glo) [nM] |
| --- | --- | --- | --- | --- |
| C[C@@H]1CNC(=O)c2ccc(-c3nc(N4C[C@@H](O)[C@@H]4C)nc4c3CCC4(F)F)cc2O1 [Example 94] |  |  | 84.1 | 8.4 |
| C[C@H]1[C@H](O)CN1c1nc2c(c(-c3ccc(C(=O)O)cc3)n1)CCC2 [Example 162, 4-(2-((2S,3R)-3-hydroxy-2-methylazetidin-1-yl)-6,7-dihydro-5H-cyclopenta[d]pyrimidin-4-yl)benzoic acid] |  |  | > 5000 | 93.1 |
| C[C@H]1[C@H](O)CN1c1nc(-c2ccc(C(N)=O)nc2)c2c(n1)C(F)(F)CC2 [Example 168, 5-(7,7-difluoro-2-((2S,3R)-3-hydroxy-2-methylazetidin-1-yl)-6,7-dihydro-5H-cyclopenta[d]pyrimidin-4-yl)picolinamide] |  |  | 144 | 23.3 |
| C[C@H]1[C@@H](O)CN1c1nc2c(c(-c3ccc(C(N)=O)cc3)n1)CCC2 [Example 169, 4-(2-((2S,3S)-3-hydroxy-2-methylazetidin-1-yl)-6,7-dihydro-5H-cyclopenta[d]pyrimidin-4-yl)benzamide] |  |  | > 5000 | 4430 |
| NC(=O)c1ccc(-c2nc(N3Cc4n[nH]cc4C3CO)nc3c2CCC3)cc1 (stereo not drawn) [Example 172, 4-(2-(4-(hydroxymethyl)-2,6-dihydropyrrolo[3,4-c]pyrazol-5(4H)-yl)-6,7-dihydro-5H-cyclopenta[d]pyrimidin-4-yl)benzamide] |  |  | > 5000 | > 5000 |
| NC(=O)c1ccc(-c2nc(N3CCn4cncc43)nc3c2CCC3)cc1 [Example 174, 4-(2-(2,3-dihydro-1H-imidazo[1,5-a]imidazol-1-yl)-6,7-dihydro-5H-cyclopenta[d]pyrimidin-4-yl)benzamide] |  |  | > 5000 | > 5000 |
| C[C@H]1[C@H](F)CN1c1nc2c(c(-c3cccc(CN)c3)n1)CCC2 [Example 352, [3-[2-[(2S,3R)-3-fluoro-2-methyl-azetidin-1-yl]-6,7-dihydro-5H-cyclopenta[d]pyrimidin-4-yl]phenyl]methanamine] |  |  | 201 |  |
| C[C@H]1CCN1c1nc2c(c(-c3ccc(CNS(C)(=O)=O)cc3)n1)CCC2 [Example 361, N-[[4-[2-[(2S)-2-methylazetidin-1-yl]-6,7-dihydro-5H-cyclopenta[d]pyrimidin-4-yl]phenyl]methyl]methanesulfonamide] |  |  | 65.7 |  |
| C[C@H]1CCN1c1nc2c(c(-c3nc4ccccc4[nH]3)n1)CCC2 [Example 389, 2-[2-[(2S)-2-methylazetidin-1-yl]-6,7-dihydro-5H-cyclopenta[d]pyrimidin-4-yl]-1H-benzimidazole] |  |  | 217 |  |
| C[C@H]1CCN1c1nc(-c2ccc(C(N)=O)cc2)c2cn[nH]c2n1 [Example 401, (S)-4-(6-(2-methylazetidin-1-yl)-1H-pyrazolo[3,4-d]pyrimidin-4-yl)benzamide] |  |  | > 5000 |  |
| C[C@H]1CCN1c1nc2c(c(-c3cn(C4CC4)nn3)n1)CCC2 [Example 644, 4-(1-cyclopropyltriazol-4-yl)-2-[(2S)-2-methylazetidin-1-yl]-6,7-dihydro-5H-cyclopenta[d]pyrimidine] |  |  | 709 |  |
| C[C@H]1CCN1c1nc2c(c(-c3cn(CCO)nn3)n1)CCC2 [Example 645, 2-[4-[2-[(2S)-2-methylazetidin-1-yl]-6,7-dihydro-5H-cyclopenta[d]pyrimidin-4-yl]triazol-1-yl]ethanol] |  |  | 399 |  |
| C[C@H]1CCN1c1nc(-c2ccc([C@H](N)C(F)F)cc2)c2c(n1)C(F)(F)CC2 [Example 650, (1S)-1-[4-[7,7-difluoro-2-[(2S)-2-methylazetidin-1-yl]-5,6-dihydrocyclopenta[d]pyrimidin-4-yl]phenyl]-2,2-difluoro-ethanamine] |  |  | 39.1 |  |

Now from value to molecule:

| EC50 [1, 2] [nM] | IC50 (human KHK-C) [nM] | EC50 [1] [nM] | IC50 (human KHK-C; ADP-Glo) [nM] | Structure (SMILES) |
| --- | --- | --- | --- | --- |
| 81.6 | 6.2 |  |  | C[C@H]1CCN1c1nc2c(c(-c3cccc([C@H]4C[C@@H](C(=O)O)C4)c3)n1)CCC2 (single isomer, unassigned) [Example 440] |
| 211 | 7 |  |  | C[C@H]1CCN1c1nc2c(c(-c3cccc([C@H]4C[C@H](C(=O)O)C4)c3)n1)CCC2 (single isomer, unassigned) [Example 441] |
|  | 156 | 320 |  | C[C@H]1CCN1c1nc2c(c(-c3cccc([S+](C)[O-])c3)n1)CCC2 (stereo in doubt) [Example 400, (S)-2-(2-methylazetidin-1-yl)-4-(3-(methylsulfinyl)phenyl)-6,7-dihydro-5H-cyclopenta[d]pyrimidine] |
|  |  | 54.7 | 18.9 | C[C@H]1CCN1c1nc2c(c(-c3cccc(CN4CCCS4(=O)=O)c3)n1)CCC2 [Example 75, (S)-2-(3-(2-(2-methylazetidin-1-yl)-6,7-dihydro-5H-cyclopenta[d]pyrimidin-4-yl)benzyl)isothiazolidine 1,1-dioxide] |
|  |  | 46 | 3.4 | C[C@H]1CNC(=O)c2ccc(-c3nc(N4C[C@@H](O)[C@@H]4C)nc4c3CCC4(F)F)cc2O1 [Example 87] |
|  |  | 251 | 49 | C[C@H]1CCN1c1nc2c(c(-c3ccc4cnccc4c3)n1)CCC2 [Example 163, (S)-6-(2-(2-methylazetidin-1-yl)-6,7-dihydro-5H-cyclopenta[d]pyrimidin-4-yl)isoquinoline] |
|  |  | 94.5 | 16.4 | C[C@H]1[C@H](O)CN1c1nc2c(c(-c3ccc4c(c3)OCCNC4=O)n1)CCC2 [Example 164, 8-(2-((2S,3R)-3-hydroxy-2-methylazetidin-1-yl)-6,7-dihydro-5H-cyclopenta[d]pyrimidin-4-yl)-3,4-dihydrobenzo[f][1,4]oxazepin-5(2H)-one] |
|  |  | > 5000 | > 5000 | C[C@H]1c2ccccc2CN1c1nc2c(c(-c3ccc(C(N)=O)cc3)n1)CCC2 [Example 167, (S)-4-(2-(1-methylisoindolin-2-yl)-6,7-dihydro-5H-cyclopenta[d]pyrimidin-4-yl)benzamide] |
|  |  | 165 | 23.5 | CNC(=O)c1ccc(-c2nc(N3C[C@@H](O)[C@@H]3C)nc3c2CCC3(F)F)cc1 [Example 171, 4-(7,7-difluoro-2-((2S,3R)-3-hydroxy-2-methylazetidin-1-yl)-6,7-dihydro-5H-cyclopenta[d]pyrimidin-4-yl)-N-methylbenzamide] |
|  |  | > 5000 | > 5000 | NC(=O)c1ccc(-c2nc(N3CCn4nccc43)nc3c2CCC3)cc1 [Example 173, 4-(2-(2,3-dihydro-1H-imidazo[1,2-b]pyrazol-1-yl)-6,7-dihydro-5H-cyclopenta[d]pyrimidin-4-yl)benzamide] |
|  |  | 164 |  | C[C@H]1CCN1c1nc2c(c(-c3ccc4c(c3)CN(S(=O)(=O)CC#N)CC4)n1)CCC2 [Example 604, (S)-2-((7-(2-(2-methylazetidin-1-yl)-6,7-dihydro-5H-cyclopenta[d]pyrimidin-4-yl)-3,4-dihydroisoquinolin-2(1H)-yl)sulfonyl)acetonitrile] |
|  |  | 37.5 |  | C[C@H]1CCN1c1nc2c(c(-c3cccc(C4CCS(=O)(=O)N4)c3)n1)CCC2 (stereo partly drawn) [Example 606, 3-(3-(2-((S)-2-methylazetidin-1-yl)-6,7-dihydro-5H-cyclopenta[d]pyrimidin-4-yl)phenyl)isothiazolidine 1,1-dioxide] |
|  |  | 32.5 |  | C[C@H]1[C@H](O)CN1c1nc(-c2ccc3c(c2)CNCC3)c2c(n1)C(F)(F)CC2 [Example 612, (2S,3R)-1-(7,7-difluoro-4-(1,2,3,4-tetrahydroisoquinolin-7-yl)-6,7-dihydro-5H-cyclopenta[d]pyrimidin-2-yl)-2-methylazetidin-3-ol] |
